Tests used:
Rat NPY5 receptor = biological target: T1, Rat NPY5 receptor (Rattus norvegicus, UniProt Q63634); assay: Rat NPY5 receptor binding assay ([125I]PYY, membrane protein); details: [125I]PYY, read-out: rNPY5 IC50
T1 sequence (Q63634 1-445): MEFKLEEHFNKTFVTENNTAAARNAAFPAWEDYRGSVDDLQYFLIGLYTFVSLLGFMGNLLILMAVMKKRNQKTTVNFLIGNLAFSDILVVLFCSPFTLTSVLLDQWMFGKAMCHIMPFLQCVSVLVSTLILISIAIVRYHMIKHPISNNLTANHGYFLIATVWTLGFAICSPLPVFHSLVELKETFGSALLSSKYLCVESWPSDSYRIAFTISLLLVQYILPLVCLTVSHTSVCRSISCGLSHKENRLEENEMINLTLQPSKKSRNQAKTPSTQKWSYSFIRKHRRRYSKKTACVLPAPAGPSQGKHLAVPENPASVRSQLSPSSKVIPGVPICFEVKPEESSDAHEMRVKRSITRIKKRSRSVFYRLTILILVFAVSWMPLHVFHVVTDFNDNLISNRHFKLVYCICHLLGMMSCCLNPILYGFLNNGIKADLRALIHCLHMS
In short: (§1)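 Membrane protein incubated 2 h at room temperature with 75-100 pM porcine [125I]PYY and compound in pH 7.4 Tris buffer with salts, 0.1% BSA and bacitracin. Nonspecific binding with 1 μM PYY. Filtration, then gamma or scintillation counting.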

Y2 receptor = biological target: T2, Y2 receptor (Homo sapiens, UniProt P49146); assay: Y2 receptor binding assay ([125I]PYY, membrane protein); details: [125I]PYY, membrane protein; read-out: hNPY2 IC50
T2 sequence (P49146 1-381): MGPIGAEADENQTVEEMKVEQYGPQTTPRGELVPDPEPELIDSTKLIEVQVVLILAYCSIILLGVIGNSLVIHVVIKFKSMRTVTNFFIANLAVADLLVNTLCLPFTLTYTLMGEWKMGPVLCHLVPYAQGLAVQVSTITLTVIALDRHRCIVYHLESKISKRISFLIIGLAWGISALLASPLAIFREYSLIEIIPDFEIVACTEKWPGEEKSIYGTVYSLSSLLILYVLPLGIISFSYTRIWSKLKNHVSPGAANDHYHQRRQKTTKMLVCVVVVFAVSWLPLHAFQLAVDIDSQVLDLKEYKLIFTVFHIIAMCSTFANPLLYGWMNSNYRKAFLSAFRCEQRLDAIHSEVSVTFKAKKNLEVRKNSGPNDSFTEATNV
In short: (§2)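 Filtration binding with membrane protein and drug dilution, 2 h at room temperature with mixing, radioactivity counted by gamma or scintillation. Y2: 25 pM [125I]PYY in Krebs-Ringer bicarbonate pH 7.4 with 0.01% BSA, nonspecific by 1 μM NPY. Y4/PP1: 50 pM [125I]hPP in HEPES-buffered saline pH 7.4 with protease inhibitors and 0.3% BSA, nonspecific by 1 μM hPP.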

human Y4/PP1 receptor = human Y4/PP1 receptor (Homo sapiens, UniProt P50391); assay: Human Y4/PP1 receptor binding assay ([125I]human PP, membrane protein); details: [125I]human PP, membrane protein; read-out: hNPY4 IC50
In short: as §2

Human NPY1 receptor = biological target: T3, Human NPY1 receptor (Homo sapiens, UniProt P25929); assay: Human NPY1 receptor binding assay ([125I]PYY, SK-N-MC cells); details: [125I]PYY, SK-N-MC cells; read-out: hNPYI IC50
T3 construct: host or cells: SK-N-MC cells
T3 sequence (P25929 1-384): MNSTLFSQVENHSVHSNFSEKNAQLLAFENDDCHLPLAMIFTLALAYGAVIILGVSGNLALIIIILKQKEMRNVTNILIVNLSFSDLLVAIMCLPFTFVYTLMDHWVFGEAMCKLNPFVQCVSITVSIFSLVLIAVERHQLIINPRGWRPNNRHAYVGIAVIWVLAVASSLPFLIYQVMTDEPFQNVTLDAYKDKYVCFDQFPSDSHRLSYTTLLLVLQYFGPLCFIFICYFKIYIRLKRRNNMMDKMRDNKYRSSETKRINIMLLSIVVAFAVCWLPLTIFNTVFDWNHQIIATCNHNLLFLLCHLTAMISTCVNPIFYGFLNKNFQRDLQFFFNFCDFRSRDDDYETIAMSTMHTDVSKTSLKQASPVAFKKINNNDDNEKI
In short: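 Confluent SK-N-MC cells preincubated 30 min at room temperature in serum-free DMEM/25 mM HEPES pH 7.3 with BSA, bacitracin and PMSF, then incubated 3 h at room temperature with compound and ~50 pM [125I]PYY. Nonspecific binding defined with 1 μM NPY; bound radioactivity counted after Triton X-100 lysis.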

Human NPY5 receptor = biological target: T4, Human NPY5 receptor (Homo sapiens, UniProt Q15761); assay: Human NPY5 receptor binding assay ([125I]PYY, membrane protein); details: [125I]PYY, read-out: hNPY5 IC50
T4 sequence (Q15761 1-445): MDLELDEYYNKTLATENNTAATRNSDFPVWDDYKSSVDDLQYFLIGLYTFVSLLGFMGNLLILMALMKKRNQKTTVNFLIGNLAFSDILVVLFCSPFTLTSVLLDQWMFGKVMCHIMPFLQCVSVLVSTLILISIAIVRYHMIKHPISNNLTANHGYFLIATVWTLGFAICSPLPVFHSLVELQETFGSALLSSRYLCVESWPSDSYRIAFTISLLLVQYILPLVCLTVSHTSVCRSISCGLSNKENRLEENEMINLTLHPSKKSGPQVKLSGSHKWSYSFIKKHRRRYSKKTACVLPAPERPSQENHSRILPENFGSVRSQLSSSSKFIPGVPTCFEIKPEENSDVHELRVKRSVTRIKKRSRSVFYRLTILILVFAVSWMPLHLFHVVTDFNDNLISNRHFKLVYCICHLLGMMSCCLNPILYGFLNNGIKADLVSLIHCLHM
In short: as §1

Sequence of human Y4/PP1 receptor (P50391 whole entry): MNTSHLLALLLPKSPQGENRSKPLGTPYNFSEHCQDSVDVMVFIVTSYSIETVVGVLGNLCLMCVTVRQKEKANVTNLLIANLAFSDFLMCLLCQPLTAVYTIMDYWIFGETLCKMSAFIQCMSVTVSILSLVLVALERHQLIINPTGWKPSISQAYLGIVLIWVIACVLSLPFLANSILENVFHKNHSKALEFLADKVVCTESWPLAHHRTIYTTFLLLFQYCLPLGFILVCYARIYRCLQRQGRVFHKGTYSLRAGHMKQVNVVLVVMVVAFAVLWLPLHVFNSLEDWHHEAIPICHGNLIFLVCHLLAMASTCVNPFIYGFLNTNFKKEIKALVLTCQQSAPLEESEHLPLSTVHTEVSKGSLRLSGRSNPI

O=C(CN1CCCCC1)Nc1ccc(C2CCCCC2)cc1 [Compound 252, N-(4-Cyclohexyl-phenyl)-2-(piperidine)-acetamide]
IC50 (Rat NPY5 receptor): 0.63 µM | melting point: 118 to 119 °C | IC50 (Y2 receptor): > 5 µM | IC50 (human Y4/PP1 receptor): > 5 µM | IC50 (Human NPY1 receptor): > 5 µM | IC50 (Human NPY5 receptor): 0.94 µM

O=C(CN1CCC(n2c(=O)[nH]c3ccccc32)CC1)Nc1ccc(Cc2ccccc2)cc1 [Compound 258, N-(4-Benzyl-phenyl)-2-[4-(2-oxo-2,3-dihydro-benzoimidazol-1-yl)-piperidin-1-yl]-acetamide]
melting point: 182 to 183 °C | IC50 (Y2 receptor): > 5 µM | IC50 (human Y4/PP1 receptor): > 5 µM | IC50 (Human NPY1 receptor): > 5 µM | IC50 (Human NPY5 receptor): 0.1 µM

CC(C)OC(=O)c1ccc(NC(=O)CN2CCC(n3c(=O)[nH]c4ccccc43)CC2)cc1 [Compound 260]
melting point: 168 to 177 °C | IC50 (Y2 receptor): > 5 µM | IC50 (human Y4/PP1 receptor): > 5 µM | IC50 (Human NPY1 receptor): > 5 µM | IC50 (Human NPY5 receptor): 0.014 µM

CCOC(=O)Cc1ccc(NC(=O)CN2CCC(n3c(=O)[nH]c4ccccc43)CC2)cc1 [Compound 261, (4-{2 [4-(2-Oxo-2,3-dihydro-benzoimidazol-1-yl)-piperidin-1-yl]-acetylamino}-phenyl)-acetic acid ethyl ester]
melting point: 164 to 165 °C | IC50 (Y2 receptor): > 5 µM | IC50 (human Y4/PP1 receptor): > 5 µM | IC50 (Human NPY1 receptor): > 5 µM | IC50 (Human NPY5 receptor): 0.59 µM

O=C(CN1CCC(n2c(=O)[nH]c3ccccc32)CC1)Nc1ccc(C=Cc2ccccc2)cc1 [Compound 262, 2-[4-(2-Oxo-2,3-dihydro-benzoimidazol-1-yl)-piperidin-1-yl]-N-(4-styryl-phenyl)-acetamide]
melting point: 234 to 235 °C | IC50 (Y2 receptor): > 5 µM | IC50 (human Y4/PP1 receptor): > 5 µM | IC50 (Human NPY1 receptor): > 5 µM | IC50 (Human NPY5 receptor): 0.79 µM

O=C(CN1CCC(n2c(=O)[nH]c3ccccc32)CC1)Nc1ccc2c(c1)-c1ccccc1C2=O [Compound 266, 2-[4-(2-Oxo-2,3-dihydro-benzoimidazol-1-yl)-piperidin-1-yl]-N-(9-oxo-9H-fluoren-3-yl)-acetamide]
IC50 (Rat NPY5 receptor): 0.0004 µM | melting point: 176 °C | IC50 (Y2 receptor): > 5 µM | IC50 (human Y4/PP1 receptor): > 5 µM | IC50 (Human NPY1 receptor): > 5 µM | IC50 (Human NPY5 receptor): 0.0005 µM

O=C(CN1CCC(n2c(=O)[nH]c3ccccc32)CC1)Nc1cccc(C(=O)c2ccccc2)c1 [Compound 268, N-(3-Benzoyl-phenyl)-2-[4-(2-oxo-2,3-dihydro-benzoimidazol-1-yl)-piperidin-1-yl]-acetamide]
IC50 (Rat NPY5 receptor): 0.12 µM | melting point: 134 to 135 °C | IC50 (Y2 receptor): > 5 µM | IC50 (human Y4/PP1 receptor): > 5 µM | IC50 (Human NPY1 receptor): > 5 µM | IC50 (Human NPY5 receptor): 0.13 µM

O=C(CN1CCC2(CC1)C(=O)NCN2c1ccccc1)Nc1ccc(C2CCCCC2)cc1 [Compound 269, N-(4-Cyclohexyl-phenyl)-2-(4-oxo-1-phenyl-1,3,8-triaza-spiro[4.5]dec-8-yl)-acetamide]
melting point: 117 to 118 °C | IC50 (Y2 receptor): > 5 µM | IC50 (human Y4/PP1 receptor): > 5 µM | IC50 (Human NPY1 receptor): > 5 µM | IC50 (Human NPY5 receptor): 0.79 µM

CN(C(=O)CN1CCC(n2c(=O)[nH]c3ccccc32)CC1)c1ccc(C2CCCCC2)cc1 [Compound 270, N-(4-Cyclohexyl-phenyl)-N-methyl-2-[4-(2-oxo-2,3-dihydro-benzoimidazol-1-yl)-piperidin-1-yl]-acetamide]
IC50 (Rat NPY5 receptor): > 10 µM | melting point: 250 to 253 °C | IC50 (Y2 receptor): > 5 µM | IC50 (human Y4/PP1 receptor): > 5 µM | IC50 (Human NPY1 receptor): > 5 µM | IC50 (Human NPY5 receptor): > 10 µM

O=C(CN1CCCCC1)Nc1ccc(-c2ccccc2)cc1 [Compound 271, N-Biphenyl-4-yl-2-piperidin-1-yl-acetamide]
IC50 (Rat NPY5 receptor): 2.9 µM | melting point: 102 to 103 °C | IC50 (Y2 receptor): > 5 µM | IC50 (human Y4/PP1 receptor): > 5 µM | IC50 (Human NPY1 receptor): > 5 µM | IC50 (Human NPY5 receptor): 5.4 µM

O=C(CN1CCN(c2ccccc2)CC1)Nc1ccc(C2CCCCC2)cc1 [Compound 272, N-(4-Cyclohexyl-phenyl)-2-(4-phenyl-piperazin-1-yl)-acetamide]
IC50 (Rat NPY5 receptor): 0.21 µM | melting point: 195 to 196 °C | IC50 (Y2 receptor): > 5 µM | IC50 (human Y4/PP1 receptor): > 5 µM | IC50 (Human NPY1 receptor): > 5 µM | IC50 (Human NPY5 receptor): 0.117 µM

O=C(CNC(c1ccccc1)c1ccccc1)Nc1ccc(C2CCCCC2)cc1 [Compound 273, 2-(Benzhydryl-amino)-N-(4-cyclohexyl-phenyl)-acetamide]
IC50 (Rat NPY5 receptor): 6.5 µM | melting point: 132 to 133 °C | IC50 (human Y4/PP1 receptor): > 5 µM | IC50 (Human NPY1 receptor): > 5 µM | IC50 (Human NPY5 receptor): 7 µM

O=C(CN1CCC(NC(=O)Nc2ccccc2)CC1)Nc1ccc(C2CCCCC2)cc1 [Compound 274, N-(4-Cyclohexyl-phenyl)-2-[4-(3-phenyl-ureido)-piperidin-1-yl]-acetamide]
IC50 (Rat NPY5 receptor): 1.5 µM | melting point: 222 to 223 °C | IC50 (human Y4/PP1 receptor): > 5 µM | IC50 (Human NPY1 receptor): > 5 µM | IC50 (Human NPY5 receptor): 4.8 µM

CC(C(=O)Nc1ccc(C2CCCCC2)cc1)N1CCC(n2c(=O)[nH]c3ccccc32)CC1 (stereo not shown) [Compound 278, N-(4-Cyclohexyl-phenyl)-2-[4-(2-oxo-2,3-dihydro-benzoimidazol-1-yl)-piperidin-1-yl]-propionamide]
IC50 (Rat NPY5 receptor): 0.012 µM | melting point: 148 to 150 °C | IC50 (Y2 receptor): > 5 µM | IC50 (human Y4/PP1 receptor): > 5 µM | IC50 (Human NPY1 receptor): > 5 µM | IC50 (Human NPY5 receptor): 0.028 µM

CC(C(=O)Nc1ccc(C(C)(C)C)cc1)N1CCC(n2c(=O)[nH]c3ccccc32)CC1 (stereo not shown) [Compound 279]
IC50 (Rat NPY5 receptor): 0.068 µM | melting point: 144 to 148 °C | IC50 (Y2 receptor): > 5 µM | IC50 (human Y4/PP1 receptor): > 5 µM | IC50 (Human NPY1 receptor): > 5 µM | IC50 (Human NPY5 receptor): 0.13 µM

CC(C)N(CCNC(=O)CN1CCC(n2c(=O)[nH]c3ccccc32)CC1)C(C)C [Compound 281, N-(2-Diisopropylamino-ethyl)-2-[4-(2-oxo-2,3-dihydro-benzoimidazol-1-yl)-piperidin-1-yl]-acetamide]
IC50 (Rat NPY5 receptor): > 10 µM | melting point: 195 to 196 °C | IC50 (Y2 receptor): > 5 µM | IC50 (human Y4/PP1 receptor): > 5 µM | IC50 (Human NPY1 receptor): > 5 µM | IC50 (Human NPY5 receptor): > 10 µM

Cl.O=C(CN1CCC(C(=O)c2ccc(F)cc2)CC1)Nc1ccc(C2CCCCC2)cc1 [Compound 292, N-(4-Cyclohexyl-phenyl)-2-[4-(4-fluoro-benzoyl)-piperidin-1-yl]-acetamide; hydrochloride]
IC50 (Rat NPY5 receptor): 0.084 µM | melting point: 258 °C | IC50 (Y2 receptor): > 5 µM | IC50 (human Y4/PP1 receptor): > 5 µM | IC50 (Human NPY5 receptor): 0.11 µM

From US6410792B1, “Amide derivatives and methods for using the same as selective neuropeptide Y receptor antagonists” (Bayer Corporation, priority 1997, dated 2002)
